Experimental findings from US8436006B2, “2-amino-quinazoline derivatives useful as inhibitors of β-secretase (BACE)” (Jansssen Pharmaceutica N.V., priority 2004, dated 2013) are described below.

What all share (assay type): biochemical
The target of assay [1] is T1, β-secretase (BACE) (Homo sapiens, UniProt P56817).
T1 construct: purchased Panvera
Put plainly: BACE Assay-1 (Example 158), MCA-substrate fluorescence. Conditions: procedure of Example 158. On the procedure:
The following standards are reagents were used in this assay: Sodium Citrate trisodium salt dihydrate (Sigma), Citric Acid monohydrate (Merck), PEG8000 (Sigma), MCA-substrate (Bachem), β-secretase (BACE) (Panvera), 96-well plate zwart (Costar (Elscolab)), StatVal (Bachem).
The following standard assay buffer solution was prepared and used in this assay: 0.05 M, pH 5.0 mixture of sodium citrate trisodium salt dihydrate (9.56 g), citric acid monohydrate (3.68 g) and PEG8000 (0.50 g).
The MCA-substrate stock solution was prepared by mixing 10 mg MCA-substrate with 5 mL DMSO for a final solution concentration of 2.0 mg/mL. The substrate work solution was prepared by mixing 0.1 mL substrate in 1.90 mL assay buffer for a final concentration of 0.05 mM. The β-secretase (BACE) work solution was prepared by mixing 8 μL BACE in 2 mL assay buffer for a final concentration of 10 μg/mL.
The screen procedure for this assay was as follows. 60 μL of assay buffer was pippeted into each well of a 96-well plate. To each well was then pipetted 1 μL of test compound at the selected concentration. To each well was then added 20 μL of the β-secretase work solution and 20 μL of the MCA-substrate stock solution.
The procedure for the blank was as follows. 80 μL of assay buffer was pipetted into each well to be used as a blank control. To each well was then added 1 μL of DMSO and 20 μL of MCA-substrate solution in each well.
The procedure for the positive control was as follows. 60 μL of assay buffer was pipetted into each well to be used as a positive control. To each well was then added 1 μL of DMSO, 20 μL of BACE work solution and 20 μL of MCA-substrate stock solution.
For test compounds, measured at multiple concentrations, the measured T0 and T60 values were used to calculate an IC50 value using Graphpad Software (or PIR).

In assay [2] the target is T1, β-secretase (BACE). The assay is described as follows: BACE Assay-2 (Example 159), FS1 substrate, kinetic fluorescence. The following applies: procedure of Example 159. On the procedure: The FS1-substrate stock solution was prepared in DMSO as a 10 mg/mL solution. The FS1-substrate working solution was prepared by diluting the 10 mg/mL stock solution with substrate assay buffer to a final concentration of 300 μg/mL. The β-secretase (BACE) working solution was prepared by diluting a 0.83 mg/mL BACE stock solution with enzyme assay buffer to a final concentration of 4 μg/mL.
Test compounds were dissolved in DMSO at 10 mM.
The procedure for this assay was as follows: 15 μL of BACE working solution was pipetted into each well of a 96-well plate. To each well was then pipetted 2 μL of test compound at the selected concentration. Test compound and BACE were then mixed with a pipettor and incubated for 20 min at room temperature. To each well was then added 10 μL of the FS1 substrate working solution.
The procedure for the positive control was as follows: 15 μL of BACE working solution was pipetted into each well to be used as a positive control. To each well was then pipetted 2 μL of vehicle. Vehicle and BACE were then mixed with a pipettor and incubated for 20 min at room temperature. To each well was then added 10 μL of the FS1 substrate working solution.
For test compounds, measured at multiple concentrations, the measured T0 and T60 values were used to calculate an IC50 value using Graphpad Software (or PIR). For test compounds, Ki inhibition was determined as follows: For each compound concentration and positive control, rate of cleavage of substrate (Vi, where i=compound concentration in μM) was determined as Δ Fluorescence/Δ time (min). Cleavage rates (Vi) were plotted as a function of inhibitor concentration in μM [I]. The Ki was then determined by fitting the following equation to the graph of [I] vs Vi Y=aVmax/(50+24*(1+X/Ki)),

Assay [3] addresses T1, β-secretase (BACE). The assay is described as follows: BACE % Inhibition Assay (Example 161), (Aedens)-[…]-(Dabcyl K-amide) substrate. The following applies: % error ±10%. On the procedure: The following reagents were used in this assay: sodium acetate, PEG8000 (Sigma), DMSO, HEPES, (Aedens)-[…]-(Dabcyl K-amide) substrate, β-secretase (BACE) (Panvera), and 96-well plate (HE microplate, Molecular Devices).
The substrate stock solution was prepared in DMSO as a 10 mg/mL solution. The substrate working solution was prepared by diluting the 10 mg/mL stock solution with substrate assay buffer to a final concentration of 300 μg/mL. The β-secretase (BACE) working solution was prepared by diluting a 0.83 mg/mL BACE stock solution with enzyme assay buffer to a final concentration of 4 μg/mL.
Test compounds were dissolved in DMSO to 10 mM.
The screening procedure for this assay was as follows: 15 μL of BACE working solution was pipetted into each well of a 96-well plate. To each well was then pipetted 2 μL of test compound at the selected concentration. Test compound and BACE were then mixed with a pipettor and incubated for 20 min at room temperature. To each well was then added 10 μL of the substrate working solution. The plates were then incubated for 1 hour at room temperature.
The procedure for the blank was as follows. 15 μL of assay buffer was pipetted into each well to be used as a blank control. To each well was then added 2 μL of vehicle and 10 μL of substrate working solution. The plates were then incubated for 1 hour at room temperature.
The procedure for the positive control was as follows: 15 μl of BACE working solution was pipetted into each well to be used as a positive control. To each well was then pipetted 2 μL of vehicle. Vehicle and BACE were then mixed with a pipettor and incubated for 20 min at room temperature. To each well was then added 10 μL of the substrate working solution. The plates were then incubated for 1 hour at room temperature.
For test compounds, % inhibition was determined at each concentration as follows: % Inhibition=[[…]][FI(positive control)−FI(negative control)]

For assay [4], the target named is T1, β-secretase (BACE). Put plainly: BACE FS1% Inhibition Assay (Example 160). Conditions: read-out: % Inhibition (FS).

T1 sequence (P56817 46-501): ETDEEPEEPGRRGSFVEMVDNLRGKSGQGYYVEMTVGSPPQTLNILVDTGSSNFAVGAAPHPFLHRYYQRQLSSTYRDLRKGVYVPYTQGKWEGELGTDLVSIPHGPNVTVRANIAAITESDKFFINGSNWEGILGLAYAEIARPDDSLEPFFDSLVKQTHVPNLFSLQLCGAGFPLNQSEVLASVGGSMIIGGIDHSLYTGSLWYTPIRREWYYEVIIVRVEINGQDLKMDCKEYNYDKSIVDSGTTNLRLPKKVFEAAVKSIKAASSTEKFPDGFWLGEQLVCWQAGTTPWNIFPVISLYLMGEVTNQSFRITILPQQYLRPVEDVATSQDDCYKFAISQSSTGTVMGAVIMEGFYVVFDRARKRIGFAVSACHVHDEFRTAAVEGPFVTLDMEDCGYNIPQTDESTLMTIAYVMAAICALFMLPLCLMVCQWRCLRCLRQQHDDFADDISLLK

On to `CC(C)(C)C(=O)NCC(C1CCCCC1)N1Cc2cc(Oc3ccccc3)ccc2N=C1N` (stereo not drawn) [Compound 317], for which the IC50 (commonly the midpoint of a concentration-inhibition curve) on β-secretase (BACE) [1] came to 0.39 µM. Affinity at β-secretase (BACE) [2] was put at a Ki of 0.18 µM. Also, the inhibition – broadly, the drop in the measured response relative to a control, in per cent – at 0.3 µM at β-secretase (BACE) [3] (0.3 μM test compound) was below 30%. Besides, at β-secretase (BACE) [3] (1 μM test compound), the inhibition at 1 µM came to 66%. In addition, the inhibition at 3 µM at β-secretase (BACE) [3] (3 μM test compound) amounted to 107%.
At β-secretase (BACE) [1], `CCCC(CCCC(=O)NC1CCCCC1)N1Cc2cc(Oc3ccccc3)ccc2N=C1N` (stereo not drawn) [Compound 91] came in with an IC50 of 0.6 µM. Also, the affinity at β-secretase (BACE) [2], expressed as Ki, was 0.32 µM. For the same compound, the inhibition at 3 µM on β-secretase (BACE) [4] (3 μM test compound) turned out to be 68%. Further, the inhibition at 10 µM at β-secretase (BACE) [4] (10 μM test compound) worked out at 117%.
